In patent US20130034536A1, “Bile Acid Recycling Inhibitors for Treatment of Pancreatitis” (Lumena Pharmaceuticals, Inc., priority 2011, published 2013):

System: plasma active GLP-1 levels
Test: In vivo effects of ASBT inhibitor SC-435 on plasma active GLP-1 levels in rats (ELISA)
Parameters: species or system Sprague Dawley rats
Experimental: Male Sprague Dawley rats (HSD) 12 weeks old were fasted overnight for 16 hours.
SC-435 (racemate form synthesized at Nanosyn Inc. Menlo Park, Calif.) in 1 ml of saline administrated orally via gavage tube (n=5 per group).
Blood samples (200 μl) taken from the caudal vein with capillary tube at […] after compound administration for testing of plasma active GLP-1 levels (ELISA, Millipore Inc.)
Blood was collected in ice-cooled EDTA vial. Immediately (<30 seconds) after collection DPP-IV inhibitor added (10mkl per 1 ml blood). Samples were centrifuged immediately at 1000×g for 10 minutes in refrigerated centrifuge. Plasma was stored at −70° C. until evaluation.

“1-[4-[4-[(4R,5R)-3,3-dibutyl-7-(dimethylamino)-2,3,4,5-tetrahydro-4-hydroxy-1,1-dioxido-benzothiepin-5-yl]phenoxy]butyl]-4-aza-1-azoniabicyclo[2.2.2]octane methanesulfonate salt [SC-435]” was tested, and the “time of peak GLP-1 after administration” value (after oral SC-435 administration) was 3 to 5 h, the “increase of 5-hour integrated GLP-1 concentrations vs. vehicle” value (oral gavage, doses 3, 30 or 100 mg/kg, overnight-fasted male rats, dose-dependent) was 2.5 fold and the “Peak GLP-1” value (plasma active GLP-1 after oral SC-435) was 30 to 36 pM.
